According to patent US8163476B2, “CUDR as biomarker for cancer progression and therapeutic response” (The Chinese University of Hong Kong, priority 2004, dated 2012):

How the values were obtained:
[1] = test system: stable CUDR transfectant of A431 cells; experiment: Response of stable CUDR transfectants of A431 cells to DOX and Taxol by MTT assay; type: cell-based, human; settings: CUDR transfectants versus A431 cells transfected with empty vector; drug for 5 days; FIGS. 5A and 5C
Procedure: (§1) A431 cells were transfected with a vector carrying the full-length CUDR cDNA or an empty vector. After transfection, the cells were selected with G418 and individual colony was picked for establishment as stable transfectants. The stable transfectants were maintained in culture supplemented with G418. The response of cells to drugs was measured by both MTT assay and DNA fragmentation assay.
For the MTT assay, the cells were seeded in a 96-well plate for 2 days and incubated with various concentrations of DOX or Taxol for 5 days. At the end of the incubation, the cells were incubated with 50 μl of a 0.1 mg/ml solution of 3-[4,5-dimethylthiaol-2-yl]-2,5-diphenyltetrazolium bromide (MTT) at 37° C. for 3 h and lysed in 150 μl of dimethyl sulfoxide at room temperature for 30 min. The absorbance of each well was measured at 580 nm in a microplate reader. The percentage of cell survival was calculated as the ratio between cells with drug treatment and cells without drug treatment. The MTT results for DOX and Taxol were shown in FIGS. 5A and 5C respectively. ◯: control cells, i.e. A431 cells transfected with empty vector; ▴: stable CUDR transfectant of A431 cells. Error bar: standard deviation.

[2] = test system: stable CUDR transfectant of A431 cells; experiment: DNA fragmentation assay (apoptotic response) in stable CUDR transfectants of A431 cells; type: cell-based, human; settings: CUDR transfectants versus A431 cells transfected with empty vector; drug for 3 days; FIGS. 5B and 5D
Procedure: as §1
DNA fragmentation assay, one of the common methods, was conducted to assess the apoptotic response of cells upon treatment with anticancer drug. The cells were seeded in 60 mm Petri dish for 2 days and then exposed to various concentrations of DOX or Taxol for 3 days. After incubation, the cells were lysed in lysis buffer containing Tris-HCl, SDS, EDTA and protease K and incubated at 45° C. for 2 h. After phenol/chloroform extraction, DNA was precipitated with sodium acetate and 100% ethanol. After overnight digestion with RNase A at 37° C., 40 μg of the DNA sample were separated on 1.5% EtBr staining agarose gel. The DNA fragmentation pattern was viewed with UV light box. The presence of the “DNA laddering” pattern indicates the induction of apoptosis in cells; the more extensive the laddering pattern, the more significant the apoptosis induction. AN: control cells, A431 cells transfected with an empty vector; AG: stable CUDR transfectant of A431 cells; and M: 100 bp marker.

[3] = test system: A431 parent cells, A5A and A10A cells; experiment: Response of A431 sublines to doxorubicin by MTT assay; type: cell-based, human; settings: A431/A5A and A10A cells versus A431 parent cells; incubated with drug for 5 days; FIG. 1
Procedure: Responses of A431 parent cells, A5A and A10A cells to doxorubicin (DOX) were compared in this Example.
A431/A5A cells were A431 cells survived from treatment with 5 μg/ml of DOX, and A10A cells were derived from A5A cells survived from treatment with 10 μg/ml of DOX.
Cells were seeded in 96-well plates for 2 days and incubated with various concentrations of DOX for 5 days. At the end of the incubation, the cells were incubated in 50 μl of a 0.1 mg/ml solution of 3-[4,5-dimethylthiaol-2-yl]-2,5-diphenyltetrazolium bromide (MTT) at 37° C. for 3 h and lysed in 150 μl of dimethyl sulfoxide at room temperature for 30 min. The absorbance of each well was measured at 580 nm in a microplate reader. The survival percentage of cells was calculated as the ratio between cells with drug treatment and cells without drug treatment.

[4] = test system: Human squamous carcinoma A431 cells; experiment: Doxorubicin sensitivity of A431 cells after transfection with full-length CUDR or CUDR antisense oligonucleotides (MTT assay); type: cell-based; settings: plasmid 24 h or oligonucleotides 4 h, then DOX for 48 h
Procedure: The role of CUDR in sensitivity of cells to doxorubicin was examined. Human squamous carcinoma A431 cells were transfected with either plasmid carrying the full-length CUDR cDNA or antisense oligonucleotides of CUDR. The cells were seeded in a 96-well plate for 4 h before incubation with full-length CUDR plasmid DNA for 24 h or CUDR oligonucleotides for 4 h. After transfection, the cells were incubated with DOX for 48 h. The cell survival was measured by MTT assay. Furthermore, the CUDR mRNA level after transfection was examined by Northern blot analysis.
In FIG. 4A, ---o--- (C): cells without transfection; -▪- (CUDR): cells transfected with full length CUDR. In FIG. 4B, ---o--- (C): Cells without transfection treatment; -●- (S): transfection with sense CUDR oligonucleotides; -▪- (AS): transfection with CUDR antisense oligonucleotides.
Antisense sequence for CUDR was: 5′-[…]-3′ (nt1347-1367) (SEQ ID NO:9) and the sequence for the sense oligonucleotides was complementary to that of the antisense.

Row | Compound | response of cells to drug (percentage of cell survival) [1] | apoptotic response of cells upon drug treatment (DNA laddering) [2] | response of cells to drug (survival percentage of cells) [3] | effect of transfection on doxorubicin sensitivity of cells (cell survival) ([4]; FIG. 4) | effect of transfection on doxorubicin sensitivity of cells (cell survival) ([4]; FIG. 4, listed as antisense CUDR nucleic acids)
1 | COc1cccc2c1C(=O)c1c(O)c3c(c(O)c1C2=O)C[C@@](O)(C(=O)CO)C[C@@H]3O[C@H]1C[C@H](N)[C@H](O)[C@H](C)O1 [DOX, doxorubicin] | more resistant | more refractory to the apoptosis | more resistant |  | 
2 | CC(=O)O[C@H]1C(=O)[C@@]2(C)[C@H]([C@H](OC(=O)c3ccccc3)[C@]3(O)C[C@H](OC(=O)[C@H](O)[C@@H](NC(=O)c4ccccc4)c4ccccc4)C(C)=C1C3(C)C)[C@]1(OC(C)=O)CO[C@@H]1C[C@@H]2O [Taxol] | more resistant | more refractory to the apoptosis |  |  | 
3 | antisense CUDR oligonucleotides: Antisense sequence for CUDR: 5′-CAAGGTGCCAGTTAGCGTAT-3′ (nt1347-1367) (SEQ ID NO:9) (listed as DNA, chemistry not given here) |  |  |  | increased the DOX sensitivity of cells | increase the drug sensitivity of cancer cells
